Test results from publication PMC4486940, “Redox Linked Flavin Sites in Extracellular Decaheme Proteins Involved in Microbe-Mineral Electron Transfer” (Scientific Reports, 2015).

Legend:
Type in all cases: binding
OmcA = molecular target: T1, OmcA (Shewanella oneidensis, UniProt Q8EG33); test: PD10 gel-filtration co-elution, flavin fluorescence and absorbance; conditions: anaerobic, 1 mM reduced glutathione (disulfide reduced), 10 uM FMN, 20 mM HEPES pH 7.6, room temperature
T1 construct: soluble form, isolated as in earlier work
T1 sequence (Q8EG33 28-735): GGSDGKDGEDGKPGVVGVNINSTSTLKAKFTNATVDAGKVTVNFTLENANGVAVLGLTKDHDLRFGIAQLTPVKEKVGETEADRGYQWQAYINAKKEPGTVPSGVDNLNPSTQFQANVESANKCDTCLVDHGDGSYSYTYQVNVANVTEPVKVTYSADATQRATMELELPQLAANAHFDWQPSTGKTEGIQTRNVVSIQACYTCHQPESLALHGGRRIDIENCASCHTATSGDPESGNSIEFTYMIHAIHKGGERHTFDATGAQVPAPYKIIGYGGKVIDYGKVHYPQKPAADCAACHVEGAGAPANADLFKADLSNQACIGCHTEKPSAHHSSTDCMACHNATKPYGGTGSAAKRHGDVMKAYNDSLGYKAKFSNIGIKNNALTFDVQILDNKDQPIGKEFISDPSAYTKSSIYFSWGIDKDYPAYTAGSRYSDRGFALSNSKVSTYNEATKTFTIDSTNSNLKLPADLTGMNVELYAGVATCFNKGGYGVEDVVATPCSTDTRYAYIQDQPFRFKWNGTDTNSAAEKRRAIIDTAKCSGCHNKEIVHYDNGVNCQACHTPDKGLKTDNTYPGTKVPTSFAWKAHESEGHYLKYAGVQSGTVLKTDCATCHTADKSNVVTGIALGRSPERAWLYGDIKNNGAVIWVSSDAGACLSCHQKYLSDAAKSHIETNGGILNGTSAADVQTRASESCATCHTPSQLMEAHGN

MtrF = molecular target: T2, MtrF (Shewanella oneidensis, UniProt Q8EG32); test: PD10 gel-filtration co-elution, flavin fluorescence ([…] nm); conditions: anaerobic, 1 mM reduced glutathione (disulfide reduced), 10 uM FMN, 20 mM HEPES pH 7.6, room temperature
T2 construct: detergent-solubilised form, isolated as in earlier work
T2 sequence (Q8EG32 24-639): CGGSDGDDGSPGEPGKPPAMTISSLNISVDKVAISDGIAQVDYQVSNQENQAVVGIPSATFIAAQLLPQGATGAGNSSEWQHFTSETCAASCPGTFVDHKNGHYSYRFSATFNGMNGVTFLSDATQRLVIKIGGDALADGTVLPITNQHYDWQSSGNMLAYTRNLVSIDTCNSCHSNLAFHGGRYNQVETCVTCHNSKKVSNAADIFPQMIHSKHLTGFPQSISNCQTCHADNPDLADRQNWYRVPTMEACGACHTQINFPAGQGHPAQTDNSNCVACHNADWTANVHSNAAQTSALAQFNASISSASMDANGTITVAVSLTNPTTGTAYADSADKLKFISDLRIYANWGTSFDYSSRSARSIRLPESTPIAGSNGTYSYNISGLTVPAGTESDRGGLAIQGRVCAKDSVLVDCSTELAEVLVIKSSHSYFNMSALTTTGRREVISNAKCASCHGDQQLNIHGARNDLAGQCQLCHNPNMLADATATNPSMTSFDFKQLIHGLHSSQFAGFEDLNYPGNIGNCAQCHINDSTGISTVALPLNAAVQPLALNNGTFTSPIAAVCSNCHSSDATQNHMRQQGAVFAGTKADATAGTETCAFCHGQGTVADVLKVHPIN

MtrC [1] = molecular target: T3, MtrC (Shewanella oneidensis, UniProt Q8EG34); test: PD10 gel-filtration co-elution, flavin fluorescence and absorbance; fluorescence quenching; conditions: anaerobic, 1 mM reduced glutathione (disulfide reduced), 1 uM MtrC, 10 uM FMN, 20 mM HEPES pH 7.6, room temperature
T3 construct: soluble; pLS146 in S. oneidensis LS329; model residues 45-670
T3 sequence (Q8EG34 26-671): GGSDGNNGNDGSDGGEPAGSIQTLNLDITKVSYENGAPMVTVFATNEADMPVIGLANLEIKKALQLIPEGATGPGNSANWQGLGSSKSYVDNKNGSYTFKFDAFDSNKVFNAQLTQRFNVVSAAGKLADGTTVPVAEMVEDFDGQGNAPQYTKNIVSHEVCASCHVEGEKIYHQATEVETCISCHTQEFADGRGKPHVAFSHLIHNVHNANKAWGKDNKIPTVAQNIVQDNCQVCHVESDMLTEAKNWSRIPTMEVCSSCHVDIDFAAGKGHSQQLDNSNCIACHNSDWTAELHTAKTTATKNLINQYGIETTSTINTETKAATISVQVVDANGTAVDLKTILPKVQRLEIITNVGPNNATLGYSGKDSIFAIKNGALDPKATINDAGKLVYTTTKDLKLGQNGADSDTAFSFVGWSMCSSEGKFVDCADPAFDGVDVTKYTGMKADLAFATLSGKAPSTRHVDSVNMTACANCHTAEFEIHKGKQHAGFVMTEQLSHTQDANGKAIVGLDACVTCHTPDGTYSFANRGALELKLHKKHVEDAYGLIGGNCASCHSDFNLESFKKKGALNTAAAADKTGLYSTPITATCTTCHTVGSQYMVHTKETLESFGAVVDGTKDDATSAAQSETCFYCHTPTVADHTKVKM

UndA = molecular target: T4, UndA (Shewanella sp. HRCR_06, UniProt F8UWD6); test: PD10 gel-filtration co-elution, flavin fluorescence ([…] nm); conditions: anaerobic, 1 mM reduced glutathione (disulfide reduced), 10 uM FMN, 20 mM HEPES pH 7.6, room temperature
T4 construct: soluble form, isolated as in earlier work
T4 sequence (F8UWD6 27-843): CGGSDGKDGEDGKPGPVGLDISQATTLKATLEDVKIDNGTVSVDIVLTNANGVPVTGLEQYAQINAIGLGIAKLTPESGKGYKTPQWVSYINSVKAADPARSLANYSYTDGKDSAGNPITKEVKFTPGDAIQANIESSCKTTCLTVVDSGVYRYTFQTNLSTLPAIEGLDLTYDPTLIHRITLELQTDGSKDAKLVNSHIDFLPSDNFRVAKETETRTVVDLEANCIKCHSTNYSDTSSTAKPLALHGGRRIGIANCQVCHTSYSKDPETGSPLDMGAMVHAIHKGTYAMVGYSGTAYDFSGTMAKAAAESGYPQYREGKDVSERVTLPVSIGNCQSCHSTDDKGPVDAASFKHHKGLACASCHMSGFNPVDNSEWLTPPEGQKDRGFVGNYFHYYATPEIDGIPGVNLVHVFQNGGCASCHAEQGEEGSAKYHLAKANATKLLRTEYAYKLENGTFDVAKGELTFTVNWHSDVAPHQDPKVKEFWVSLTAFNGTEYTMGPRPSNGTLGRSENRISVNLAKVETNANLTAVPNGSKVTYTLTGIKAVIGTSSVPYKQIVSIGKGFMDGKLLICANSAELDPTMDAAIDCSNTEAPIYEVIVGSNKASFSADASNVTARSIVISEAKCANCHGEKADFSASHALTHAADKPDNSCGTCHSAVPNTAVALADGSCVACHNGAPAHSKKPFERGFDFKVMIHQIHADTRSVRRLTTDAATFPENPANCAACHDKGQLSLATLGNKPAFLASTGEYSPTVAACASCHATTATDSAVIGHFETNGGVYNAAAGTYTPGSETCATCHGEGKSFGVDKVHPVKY

MtrC [2] = molecular target: T3, MtrC; test: PD10 gel-filtration co-elution, spectroscopy; conditions: anaerobic, reduced glutathione (disulfide reduced), 20 mM HEPES pH 7.6, room temperature

Structure (SMILES)	PD10 gel-filtration co-elution, flavin fluorescence and absorbance (OmcA)	PD10 gel-filtration co-elution, flavin fluorescence (525 nm) (MtrF)	PD10 gel-filtration co-elution, flavin fluorescence and absorbance; fluorescence (MtrC [1])	PD10 gel-filtration co-elution, flavin fluorescence (525 nm) (UndA)	PD10 gel-filtration co-elution, spectroscopy (MtrC [2])
Cc1cc2nc3c(=O)[nH]c(=O)nc-3n(C[C@H](O)[C@H](O)[C@H](O)COP(=O)(O)O)c2cc1C [FMN]	Co-elution of FMN and OmcA was observed in the presence, but not the absence, of glutathione	OMMC-FMN interactions were also observed after incubation of MtrF or UndA with FMN	FMN associated specifically with MtrC in the presence of glutathione	OMMC-FMN interactions were also observed after incubation of MtrF or UndA with FMN	
Cc1cc2nc3c(=O)[nH]c(=O)nc-3n(C[C@H](O)[C@H](O)[C@H](O)CO)c2cc1C [riboflavin]					MtrC was also capable of tightly binding a single molecule of riboflavin
